Results reported in the NIST ThermoML archive (doi:10.1021/acs.jced.5b00880).
Numbers after ± are expanded uncertainties.

Conditions: Crystal; DTA

- Normal melting temperature: 152.4 ± 1.1 °C
Compound: O=C(O)CCCCC(=O)O [1,6-hexanedioic acid]
